Laboratory results from article PMC10689823, “Discovery of a Drug-like, Natural Product-Inspired DCAF11 Ligand Chemotype” (Nature Communications, 2023).
Several values for one entry are separate records, joined by “and”; a condition that tells them apart may be missing. Identical values can stand only once.

System: BRD2
Experiment: In-Cell Western for BRD2 levels in Hep G2 cells
Assay type: cell-based
Settings: then 9 (10 μM, 4 h); for BRD2/Vinculin intensity (relative to control group): Hep G2 cells, single repeats, Fig. 4h; for Value (Mean ± SD): Relative BRD2 levels remaining in Hep G2 cells after treatment with compounds followed by treatment with 9, with DMSO control for normalization: qualitative ICW assay, Supplementary Table 1
Procedure: Hep G2 cells were seeded in 96-well plates and incubated for 24 h. Compounds were added for the indicated time at the indicated concentration. Cells were then washed once with PBS and fixed with 4% paraformaldehyde for 30 min at room temperature. The fixed cells were permeabilized with 0.5 % Triton-X100 for 15 min followed by block with Intercept® Blocking Buffer (LI-COR Biosciences, 927-70001) for 1 h at room temperature. Primary antibodies for BRD2 (1:800) and Vinculin (1:2000) were diluted with LI-COR buffer and incubated with the cells at 4 °C overnight. Cells were washed with PBS-T, and the secondary antibodies conjugated to IRDye (1:1000, LI-COR Biosciences) were added to the cells for 1 h at room temperature. After washing the cells, the signal was recorded with the Odyssey® CLx Infrared Imaging System (LI-COR Biosciences) and the protein levels were analyzed by Image Studio (LI-COR Biosciences). BRD2 protein levels were normalized to the levels of reference protein vinculin.

[1] = pretreated with compound at 30 μM 1 h

Compound	BRD2/Vinculin intensity (relative to control group) [1]	Value (Mean ± SD): Relative BRD2 levels remaining in Hep G2 cells after treatment with compounds followed by treatment with 9, with DMSO control for normalization (pretreated at 30 μM 1 h)	BRD2/Vinculin intensity (relative to control group) (pretreated with MLN4924 at 1 μM 1 h)	Value (Mean ± SD): Relative BRD2 levels remaining in Hep G2 cells after treatment with compounds followed by treatment with 9, with DMSO control for normalization (MLN4924 at 1 μM 1 h)
CC(=O)N1C(=O)C(=Cc2cc(Br)c(OCCO)c(Br)c2)c2cc(Br)ccc21 (mixture of isomers) [Compound 40]	50.1992 and 43.5119 and 52.0339 and 53.5687	49.83 ± 3.84	–	–
CN1C(=O)C(=Cc2cc(Br)c(OCCO)c(Br)c2)c2cc(Br)ccc21 (mixture of isomers) [Compound 45]	68.8291 and 61.2096 and 73.2245 and 67.5028	67.69 ± 4.30	–	–
O=C1Nc2cc(Cl)ccc2C1=Cc1c[nH]c2ccc(Br)cc12 [Compound 19]	19.139 and 23.0411 and 26.0065 and 21.6242	22.45 ± 2.48	–	–
Cc1cc(C=C2C(=O)Nc3cc(Cl)ccc32)c(C)n1-c1ccc(Cl)cc1 [Compound 20]	18.6668 and 28.7239 and 22.4508 and 22.3561	23.05 ± 3.61	–	–
Cc1ccc(C=C2C(=O)Nc3ccc(Br)cc32)o1 [Compound 21]	35.3621 and 27.9558 and 29.5667 and 18.9355	27.96 ± 5.89	–	–
CCn1cc(C=C2C(=O)N(C)c3ccccc32)c2ccccc21 [Compound 22]	27.5998 and 30.1143 and 27.5093 and 28.0162	28.31 ± 1.06	–	–
Cc1cccc(-n2c(C=C3C(=O)Nc4ccc(Br)cc43)nc3ccccc3c2=O)c1 [Compound 23]	33.3864 and 29.794 and 26.5816 and 25.9636	28.93 ± 2.95	–	–
O=C1Nc2ccc(Br)cc2C1=Cc1ccc(-c2ccc(Cl)cc2)o1 [Compound 24]	33.2997 and 37.4269 and 27.7324 and 30.7224	32.30 ± 3.56	–	–
CCOC(=O)c1ccc(-c2ccc(C=C3C(=O)Nc4ccc(Br)cc43)o2)cc1 [Compound 25]	36.1651 and 31.9974 and 32.0528 and 31.1097	32.83 ± 1.96	–	–
O=C1Nc2ccc(Br)cc2C1=Cc1ccc2ccccc2n1 [Compound 26]	39.8782 and 39.8556 and 38.9972 and 37.1452	38.97 ± 1.11	–	–
COc1cccc(C=C2C(=O)Nc3ccc(Br)cc32)c1OCc1ccccc1 [Compound 27]	30.4848 and 27.4717 and 21.0618 and 23.6161	25.66 ± 3.60	–	–
O=C1Nc2ccccc2C1=CC=Cc1ccccc1 [Compound 28]	22.3518 and 31.2898 and 26.3948 and 28.7193	27.19 ± 3.29	–	–
COc1cc2c(cc1OC)C(=CC=Cc1ccc(N(C)C)cc1)C(=O)N2 [Compound 29]	35.199 and 32.8298 and 30.2931 and 29.1162	31.86 ± 2.35	–	–
CCOc1ccc(Br)c(C=C2C(=O)Nc3ccc(Br)cc32)c1 [Compound 30]	30.1563 and 42.48 and 35.4039 and 36.6749	36.18 ± 4.38	–	–
COc1cc(C)c(C=C2C(=O)Nc3ccccc32)cc1C [Compound 31]	36.8879 and 36.7406 and 37.2822 and 33.8929	36.20 ± 1.35	–	–
COc1cc(OC)c(OC)cc1C=C1C(=O)Nc2ccc(Br)cc21 [Compound 32]	37.3799 and 42.1343 and 35.9887 and 37.382	38.22 ± 2.33	–	–
O=C1Nc2cc(Cl)c(Cl)cc2C1=Cc1cc(Br)c(OCCO)c(Br)c1 [Compound 33]	39.4036 and 41.0431 and 32.5156 and 41.2316	38.55 ± 3.55	–	–
CCOc1cccc(C=C2C(=O)Nc3ccc(Br)cc32)c1O [Compound 34]	32.5833 and 35.4683 and 36.0421 and 51.0354	38.78 ± 7.19	–	–
COc1cc2c(cc1OC)C(=Cc1ccc(OC)c(OC)c1OC)C(=O)N2 [Compound 35]	–	43.80 ± 10.34	–	–
COc1cc(C=C2C(=O)Nc3ccc(Br)cc32)ccc1O [Compound 36]	48.1488 and 40.4194 and 43.1435 and 45.121	44.21 ± 2.82	–	–
COc1cc(C=C2C(=O)N(C(C)=O)c3ccc(Br)cc32)c(Br)cc1OC(C)=O [Compound 37]	55.6586 and 50.2433 and 39.6211 and 39.558	46.27 ± 6.95	–	–
COc1cc(C=C2C(=O)Nc3ccc(Br)cc32)cc(OC)c1OC [Compound 38]	42.8563 and 47.1155 and 46.6713 and 48.8801	46.38 ± 2.20	–	–
CCOc1c(O)ccc(C=C2C(=O)Nc3ccc(Br)cc32)c1[N+](=O)[O-] [Compound 39]	52.2917 and 48.4313 and 42.763 and 42.1712	46.41 ± 4.18	–	–
O=C1Nc2ccc([N+](=O)[O-])cc2C1=Cc1cc(Br)c(OCCO)c(Br)c1 [Compound 41]	35.3006 and 58.464 and 60.939	51.57 ± 11.55	–	–
O=C1Nc2cccc(Br)c2C1=Cc1cc(Br)c(OCCO)c(Br)c1 [Compound 43]	65.9619 and 44.3044 and 51.8651 and 61.4106	55.89 ± 8.40	–	–
O=C1Nc2c(Br)cccc2C1=Cc1cc(Br)c(OCCO)c(Br)c1 [Compound 44]	58.0241 and 42.9089 and 68.5528 and 58.6725	57.04 ± 9.16	–	–
O=C1Nc2cc(Br)ccc2C1=Cc1cc(Br)c(OCCO)c(Br)c1 [Compound 46]	–	70.23 ± 9.63	–	–
O=C1C(=Cc2cc(Br)c(OCCO)c(Br)c2)c2ccccc2N1c1ccccc1 [Compound 47]	–	72.76 ± 4.44	–	–
NS(=O)(=O)OC[C@@H]1C[C@@H](n2ccc3c(N[C@H]4CCc5ccccc54)ncnc32)C[C@@H]1O [MLN4924, reference compound]	–	–	108.675 and 116.153 and 114.111	112.98 ± 3.16
